Reference: patent publication US20240299593A1, “SYSTEMS AND METHODS FOR GENERATION OF HYPERPOLARIZED MATERIALS” (NVISION IMAGING TECHNOLOGIES GMBH, priority 2021, published 2024)
Structures can show the parent of a compound that is named as a salt. Where two headings read alike, the source gives them in different places.

Assays:
[1] = ICH toxicity limits, cited from earlier work; for Limits: residual solvent concentration in carrier; for Permissible Daily Exposure: residual solvent
[2] = SABRE catalyst in acetone extraction study (proton NMR of both phases); format: physicochemical; details: 1 ml Acetone-d6, 6 ml MTBE, 1 ml D2O
[3] = format: physicochemical; details: for extraction efficiency (output/input acetone concentration in water): organic wash:aqueous 4:1; for extraction efficiency, comparison in words: with and without pyruvate in solution
[4] = Liquid-liquid purification system, Example 1 (samples of phases analyzed)
Procedure: A system was prepared comprising a first vessel, a second vessel fluidly connected to the first vessel, and a third vessel fluidly connected to the second vessel. The vessels and the fluid path were covered by a defined magnetic field provided by solenoids to prevent undesired hyperpolarisation loss during the processing of a solution through the system.
The mixture was bubbled with nitrogen gas, and 1.0 mL of base (400 mM NaOD in D2O) was injected into Vessel 1 to cleave the pyruvate ester into sodium pyruvate and the corresponding unbonded sidearm.
The solution in Vessel 1 was then subjected to a first washing step. 20 mL of organic washing solvent (e.g., diethyl ether or tert-butyl methyl ether) were injected into the solution, and then agitated using nitrogen gas bubbling. The mixture was then allowed to settle for about 10 seconds until a clear phase separation between the aqueous phase (lower phase) and the organic phase (upper phase) had formed.
The aqueous phase from Vessel 1 was pumped into Vessel 2, which had been prefilled with 20 mL of the same organic washing solvent (e.g., diethyl ether or tert-butyl methyl ether). The mixture was again agitated using nitrogen gas bubbling, and allowed to settle for about 10 seconds until a clear phase separation between the aqueous phase (lower phase) and the organic phase (upper phase) had formed. […]

Row | Compound | Limits [1] | Permissible Daily Exposure [1] | also measured
1 | CC(Cl)(Cl)Cl [1,1,1-Trichloroethane] | 1500 ppm |  | 
2 | CCOC=O [Ethyl formate] | 5000 ppm | 50 mg/day | 
3 | CC(C)=O [Acetone] | 5000 ppm | 50 mg/day | concentration in the aqueous phase after washing [2]: lower in the aqueous phase after washing
4 | CC#N [Acetonitrile] | 410 ppm | 4.1 mg/day | 
5 | CC(=O)CC(C)C [Methylisobutyl ketone] | 5000 ppm | 50 mg/day | 
6 | CCO [Ethanol] | 5000 ppm | 50 mg/day | 
7 | C[S+](C)[O-] [Dimethyl sulfoxide] | 5000 ppm | 50 mg/day | 
8 | C1CCCCC1 [Cyclohexane] | 3880 ppm | 38.8 mg/day | 
9 | IrIMes(COD) PF6 |  |  | concentration in the aqueous phase after washing [2]: lower in the aqueous phase after washing; observability in NMR spectrum of the phases [2]: observable only in one of the phases and not in the other
10 | CN1CCCC1=O [N-Methylpyrrolidone] | 530 ppm | 15.3 mg/day | 
11 | CCOCC [Diethyl ether] |  |  | extraction efficiency (output/input acetone concentration in water) ([3]; 9000 mM acetone, No Pyruvate): 0.29; extraction efficiency, comparison in words [3]: effective extraction efficiency
12 | CCCOC(C)=O [Propyl acetate] | 5000 ppm | 50 mg/day | 
13 | COC(C)=O [Methyl acetate] | 5000 ppm | 50 mg/day | 
14 | COC(C)(C)C [tert-Butylmethyl ether] | 5000 ppm | 50 mg/day | extraction efficiency (output/input acetone concentration in water) ([3]; 2000 mM acetone, No Pyruvate): 0.33; extraction efficiency (output/input acetone concentration in water) ([3]; 2000 mM acetone, With Pyruvate): 0.27; extraction efficiency (output/input acetone concentration in water) ([3]; 9000 mM acetone, No Pyruvate): 0.24; extraction efficiency (output/input acetone concentration in water) ([3]; 9000 mM acetone, With Pyruvate): 0.23; extraction efficiency, comparison in words [3]: effective extraction efficiency
15 | CCOCCO [2-Ethoxyethanol] | 160 ppm | 1.6 mg/day | 
16 | ClCCl [Dichloromethane] | 600 ppm | 6.0 mg/day | extraction efficiency (output/input acetone concentration in water) ([3]; 2000 mM acetone, With Pyruvate): 0.04; extraction efficiency (output/input acetone concentration in water) ([3]; 9000 mM acetone, No Pyruvate): 0.07; extraction efficiency (output/input acetone concentration in water) ([3]; 9000 mM acetone, With Pyruvate): 0.06; extraction efficiency, comparison in words [3]: best extraction efficiency
17 | C=C(Cl)Cl [1,1-Dichloroethene] | 8 ppm |  | 

Row | Compound | Limits [1] | Permissible Daily Exposure [1] | also measured
18 | CCCCOC(C)=O [Butyl acetate] | 5000 ppm | 50 mg/day | 
19 | CCCCCCC [Heptane] | 5000 ppm | 50 mg/day | 
20 | ClCCCl [1,2-Dichloroethane] | 5 ppm |  | 
21 | ClC(Cl)(Cl)Cl [Carbon tetrachloride] | 4 ppm |  | 
22 | COCCOC [1,2-Dimethoxyethane] | 100 ppm | 1.0 mg/day | 
23 | NC=O [Formamide] | 220 ppm | 2.2 mg/day | 
24 | CCCCCO [1-Pentanol] | 5000 ppm | 50 mg/day | 
25 | CCCCC(C)=O [Methylbutyl ketone] | 50 ppm | 0.5 mg/day | 
26 | c1ccc2c(c1)CCCC2 [Tetralin] | 100 ppm | 1.0 mg/day | 
27 | CC(=O)C(=O)[O-].[Na+] [sodium pyruvate] |  |  | pH ([4]; Vessel 1, after hydrolysis and phosphate buffer, acetone/D2O): 6-9; pH ([4]; Vessel 3, final samples): 6-9
28 | COc1ccccc1 [Anisole] | 5000 ppm | 50 mg/day | 
29 | CC(=O)O [Acetic acid] | 5000 ppm |  | 
30 | CCCCCC [Hexane] | 290 ppm | 2.9 mg/day | 
31 | ClC=C(Cl)Cl [1,1,2-Trichloroethene] | 80 ppm | 0.8 mg/day | 
32 | CC1CCCCC1 [Methylcyclohexane] | 1180 ppm | 11.8 mg/day | 
33 | Xylene | 2170 ppm | 21.7 mg/day | 
34 | CN(C)C=O [N,N-Dimethylformamide] | 880 ppm |  | 
